Source: US20120088753A1, “PYRROLOPYRIMIDINES AND USED AS KINASE INHIBITORS” (MEDICAL RESEARCH COUNCIL TECHNOLOGY, priority 2009, published 2012)

What follows are compounds tested against T1, TBK1 (Homo sapiens, UniProt Q9UHD2) (assay: TBK1 protein kinase assay ([γ-33P]ATP filter-plate, IC50 from 10 concentrations)). Settings: 50 μM ATP, peptide substrate 300 μM, 30 min, 21° C.; read-out: Potency score (TBK1 IC50).
T1 construct: All protein kinases were of human origin and encoded full length proteins, unless indicated otherwise; His6; made in house; host or cells: insect Sf21 cells
T1 sequence (Q9UHD2 1-729): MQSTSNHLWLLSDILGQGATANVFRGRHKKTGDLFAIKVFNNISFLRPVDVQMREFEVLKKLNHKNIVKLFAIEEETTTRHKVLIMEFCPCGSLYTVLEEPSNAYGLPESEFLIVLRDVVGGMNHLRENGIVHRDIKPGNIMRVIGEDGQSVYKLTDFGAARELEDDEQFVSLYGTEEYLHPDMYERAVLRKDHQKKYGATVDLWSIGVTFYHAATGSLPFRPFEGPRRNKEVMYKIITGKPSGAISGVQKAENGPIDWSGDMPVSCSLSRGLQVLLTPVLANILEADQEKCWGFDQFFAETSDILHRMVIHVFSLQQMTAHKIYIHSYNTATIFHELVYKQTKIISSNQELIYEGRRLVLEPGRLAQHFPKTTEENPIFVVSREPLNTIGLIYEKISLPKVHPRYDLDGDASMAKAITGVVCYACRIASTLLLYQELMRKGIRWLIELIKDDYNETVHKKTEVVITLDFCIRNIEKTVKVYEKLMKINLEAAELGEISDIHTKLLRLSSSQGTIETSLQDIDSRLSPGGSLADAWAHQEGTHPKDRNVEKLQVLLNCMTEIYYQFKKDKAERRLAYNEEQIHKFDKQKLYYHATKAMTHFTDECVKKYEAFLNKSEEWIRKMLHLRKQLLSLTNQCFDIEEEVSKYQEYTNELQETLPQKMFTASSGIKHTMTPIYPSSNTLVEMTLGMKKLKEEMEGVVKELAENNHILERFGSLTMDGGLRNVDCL
Format: biochemical
Source text: All protein kinases were of human origin and encoded full length proteins, unless indicated otherwise. They were either expressed as glutathione S-transferase (GST) fusion proteins in Escherichia Coli or as hexahistidine (His6)-tagged proteins in insect Sf21 cells. GST fusion proteins were purified by affinity chromatography on glutathione-Sepharose, and His6-tagged proteins on nickel/nitriloacetate-agarose. The procedures for expressing some of the protein kinases used herein have been detailed previously.^8,9 The following sections outline the DNA vectors synthesised and the procedures used to express and purifying protein kinases that have not been reported previously.
The following kinases were expressed in Sf21 cells: Aurora B and Aurora C, extra-cellular signal-regulated kinase 8 (ERK8), microtubule affinity regulating kinase 3 (MARK3), protein kinase Bα[118-480][S473D], protein kinase Bβ (PKBβ[120-481][S474D], 3-phosphoinositide-dependent protein kinase-1 [52-556] (PDK1[52-556], IKKε, TBK1,
All assays (25.5 μl) were carried out at room temperature (21° C.) and were linear with respect to time and enzyme concentration under the conditions used. Assays were performed for 30 min using Multidrop Micro reagent dispensers (Thermo Electron Corporation, Waltham, Mass. 02454, USA) in a 96-well format. The concentration of magnesium acetate in the assays was 10 mM and the [γ-33P] ATP (800 cpm/pmol) was used at 5, 20 or 50 μM as indicated, in order to be at or below the Km for ATP for each enzyme. Protein kinases assayed at 5 μM ATP were: ERK1, ERK8, PKBα, MARK3, Aurora C. Protein kinases assayed at 20 μM ATP were: JNK1, PDK1, CHK1, CHK2, CDK2 and Aurora B. Protein kinases assayed at 50 μM ATP were: MNK2, IKKepsilon and TBK1.
The assays were initiated with MgATP, stopped by addition of 5 μl of 0.5 M orthophosphoric acid and spotted on to P81 filterplates using a unifilter harvester (PerkinElmer, Boston, Mass. 02118, USA). The IC50 values of inhibitors were determined after carrying out assays at 10 different concentrations of each compound.
ERK1 and ERK8 were both assayed against myelin basic protein (MBP, 0.33 mg/ml). MARK3 was assayed against the peptide […] (300 μM), MNK2 against the eIF4E protein (0.5 mg/ml). PKBβ was assayed against the peptide GRPRTSSFAEGKK (30 μM). TBK1 were assayed against ([…]) (300 μM). The substrates used for other protein kinases were described previously.^8,9
Unless stated otherwise, enzymes were diluted in 50 mM Tris/HCl pH 7.5, 0.1 mM EGTA, 1 mg/ml BSA, 0.1% (v/v) 2-mercaptoethanol and assayed in 50 mM Tris/HCl pH 7.5, 0.1 mM EGTA, 0.1% (v/v) 2-mercaptoethanol.

Row | Structure (SMILES) | IC50 [nM]
1 | O=C(NCCCn1ccc2cnc(Nc3ccc(N4CCOCC4)nc3)nc21)c1cnccn1 [Example 17, Pyrazine-2-carboxylic acid {3-[2-(6-morpholin-4-yl-pyridin-3-ylamino)-pyrrolo[2,3-d]pyrimidin-7-yl]-propyl}-amide] | 100 to 1000
2 | CN1CCC(C#N)(c2ccc(Nc3ncc4ccn(CCCNC(=O)C5CCC5)c4n3)cc2)CC1 [Example 59, Cyclobutanecarboxylic acid (3-{2-[4-(4-cyano-1-methyl-piperidin-4-yl)-phenylamino]-pyrrolo[2,3-d]pyrimidin-7-yl}-propyl)-amide] | < 100
3 | O=C(CC1CC1)NCCCn1ccc2cnc(Nc3ccc(N4CCOCC4)nc3)nc21 [Example 18, 2-Cyclopropyl-N-{3-[2-(6-morpholin-4-yl-pyridin-3-ylamino)-pyrrolo[2,3-d]pyrimidin-7-yl]-propyl}-acetamide] | 100 to 1000
4 | CN1CCN(c2ccc(Nc3ncc4ccn(CCCNC(=O)C5CCC5)c4n3)cn2)CC1 [Example 31, Cyclobutanecarboxylic acid (3-{2-[6-(4-methyl-piperazin-1-yl)-pyridin-3-ylamino]-pyrrolo[2,3-d]pyrimidin-7-yl}-propyl)-amide] | 100 to 1000
5 | CCCC(=O)NCCCn1ccc2cnc(Nc3ccc(N4CCOCC4)nc3)nc21 [Example 26, N-{3-[2-(6-Morpholin-4-yl-pyridin-3-ylamino)-pyrrolo[2,3-d]pyrimidin-7-yl]-propyl}-butyramide] | 100 to 1000

Further lines, results first:

Row | IC50 [nM] | Structure (SMILES)
6 | < 100 | O=C(NCCCn1ccc2cnc(Nc3cccc(F)c3)nc21)c1cccs1 [Example 10, Thiophene-2-carboxylic acid {3-[2-(3-fluoro-phenylamino)-pyrrolo[2,3-d]pyrimidin-7-yl]-propyl}-amide]
7 | < 100 | CC(=O)Nc1cccc(Nc2ncc3ccn(CCCNC(=O)C4CCCC4)c3n2)c1 [Example 33, Cyclopentanecarboxylic acid {3-[2-(3-acetylamino-phenylamino)-pyrrolo[2,3-d]pyrimidin-7-yl]-propyl}-amide]
8 | < 100 | Cn1ncc2cc(Nc3ncc4ccn(CCCNC(=O)C5CCC5)c4n3)cnc21 [Example 44, Cyclobutanecarboxylic acid {3-[2-(1-methyl-1H-pyrazolo[3,4-b]pyridin-5-ylamino)-pyrrolo[2,3-d]pyrimidin-7-yl]-propyl}-amide]
9 | < 100 | O=C(NCCCn1ccc2cnc(Nc3ccc(-c4cnco4)cc3)nc21)C1CCC1 [Example 54, Cyclobutanecarboxylic acid {3-[2-(4-oxazol-5-yl-phenylamino)-pyrrolo[2,3-d]pyrimidin-7-yl]-propyl}-amide]
10 | 100 to 1000 | O=C(NCCCn1ccc2cnc(Nc3cnn(CCN4CCOCC4)c3)nc21)C1CCC1 [Example 9, Cyclobutanecarboxylic acid (3-{2-[1-(2-morpholin-4-yl-ethyl)-1H-pyrazol-4-ylamino]-pyrrolo[2,3-d]pyrimidin-7-yl}-propyl)-amide]
